The data set has as its system normal adult male rats. Put plainly: 28-day treatment of normal adult male rats: organ weight and histology of the male reproductive tract, epididymal sperm properties. It counts as in vivo. Particulars: 2.5 mg/kg subcutaneously, 28 days. Here is the method:
The above-described properties of antiestrogens were obtained in tests that were performed with the ICI-antiestrogen 7α-[9-(4,4,5,5,5-pentafluoropentylsulfinyl)-nonyl]-estra-1,3,5(10)-triene-3,17β-diol on normal adult male rats.
The test design and the results are described in the list below:
Observations regarding the organ weight of the male reproductive tract and sperm properties: […]

On to `C[C@]12CC[C@@H]3c4ccc(O)cc4C[C@@H](CCCCCCCCC[S+]([O-])CCCC(F)(F)C(F)(F)F)[C@H]3[C@@H]1CC[C@@H]2O` (stereo partly drawn) [7α-[9-(4,4,5,5,5-pentafluoropentylsulfinyl)-nonyl]-estra-1,3,5(10)-triene-3,17β-diol], for which, where the note is “vs vehicle control”, the “histology of the organs studied (seminal vesicles, prostate, testicles, epididymis)” value was “No effects” and the “weight of the organs studied (seminal vesicles, prostate, testicles, epididymis)” value is “No effects”. For the same molecule, where the note is “epididymal sperm”, the “acrosomal state of sperm” value was “Induction of an early incipient acrosomal reaction” and the sperm motility entry is “Inhibition of motility”.

The values above are taken from patent US20010056086A1, “USE OF ANTI-OESTROGENS AS MALE CONTRACEPTIVES” (priority 1995, published 2001).
